Source: the supplement of paper PMC10307832

Compound: CN(C)CC1=CC(=CC=C1)N=C(C2=CC=CC=C2)C3=C(NC4=C3C=CC(=C4)C(=O)N(C)C)O + CS(=O)(=O)N1CCN(Cc2cc3nc(-c4cccc5[nH]ncc45)nc(N4CCOCC4)c3s2)CC1 [Pictilisib] (partner 1 µM)
Experiment: relative viability (nuclei count vs DMSO), 5 days (fraction); higher = more cells survive
Summary of the method: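 Lung cancer cell lines, seeded in 1536-well plates, were treated the following day by pin tool with a single drug or with five library-drug doses (not always all listed) in √10 steps on top of a fixed anchor-drug dose. Cells were fixed and nuclei stained in one step after 5 days, and nuclei were counted. Relative viability is the nuclei count for treated wells divided by that for vehicle wells, reported as medians of duplicate plates.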

| Cell Line | relative viability (first compound 0.08 µM) | relative viability (first compound 0.253 µM) | relative viability (first compound 0.8 µM) | relative viability (first compound 2.53 µM) | relative viability (first compound 8 µM) |
| --- | --- | --- | --- | --- | --- |
| 201T | 0.674 | 0.709 | 0.681 | 0.662 | 0.675 |
| A549 | 0.525 | 0.509 | 0.448 | 0.438 | 0.384 |
| A-427 | 0.751 | 0.693 | 0.902 | 0.803 | 0.706 |
| ABC-1 | 0.613 | 0.811 | 0.599 | 0.643 | 0.64 |
| BEN | 0.664 | 0.587 | 0.584 | 0.55 | 0.509 |
| CAL-12T |  | 0.74 | 0.482 |  | 0.459 |
| COR-L23 | 0.811 | 0.709 | 0.858 | 0.637 | 0.656 |
| COR-L 105 | 0.356 | 0.381 | 0.39 | 0.377 | 0.332 |
| Calu-6 | 0.899 | 0.872 | 0.932 | 0.877 | 0.852 |
| ChaGo-K-1 | 0.814 | 1.03 | 0.967 |  | 0.879 |
| EBC-1 | 0.441 | 0.456 | 0.416 | 0.365 | 0.318 |
| EKVX | 0.425 | 0.452 | 0.384 | 0.431 | 0.574 |
| EMC-BAC-2 | 0.545 | 0.528 | 0.552 | 0.572 | 0.569 |
| EPLC-272H | 0.301 | 0.331 | 0.323 | 0.347 | 0.457 |
| H3255 | 0.548 | 0.493 | 0.386 | 0.455 | 0.475 |
| HARA | 0.401 | 0.472 | 0.405 | 0.466 | 0.412 |
| HCC-15 | 0.739 | 0.768 | 0.877 | 0.819 | 0.774 |
| HCC-44 | 0.645 | 0.715 | 0.585 | 0.532 | 0.584 |
| HCC-78 | 0.197 | 0.24 | 0.24 | 0.206 | 0.224 |
| HCC-366 | 0.177 | 0.179 | 0.166 | 0.111 | 0.127 |
| HCC-827 | 1 | 1.05 | 0.863 | 1.06 | 0.8 |
| HOP-62 | 0.817 | 0.7 | 0.587 | 0.943 | 0.497 |
| IA-LM | 0.361 | 0.463 | 0.342 | 0.389 | 0.579 |
| LC-2-ad | 0.453 | 0.383 | 0.442 | 0.521 | 0.231 |
| LCLC-97TM1 | 0.174 | 0.218 | 0.157 | 0.224 | 0.305 |

| Cell Line | relative viability (first compound 0.08 µM) | relative viability (first compound 0.253 µM) | relative viability (first compound 0.8 µM) | relative viability (first compound 2.53 µM) | relative viability (first compound 8 µM) |
| --- | --- | --- | --- | --- | --- |
| LCLC-103H | 0.595 | 0.671 | 0.616 | 0.586 | 0.593 |
| LK-2 | 0.52 | 0.482 | 0.591 | 0.53 | 0.473 |
| LOU-NH91 | 0.532 | 0.512 | 0.481 | 0.511 | 0.512 |
| LU99A | 0.322 | 0.33 | 0.366 | 0.301 | 0.305 |
| LXF-289 | 0.778 | 0.793 | 0.794 | 0.706 | 0.731 |
| NCI-H23 | 0.45 | 0.42 | 0.565 | 0.512 | 0.475 |
| NCI-H322M | 0.499 | 0.742 | 0.388 | 0.496 | 0.701 |
| NCI-H358 | 0.384 | 0.28 | 0.34 | 0.331 | 0.347 |
| NCI-H441 | 0.451 | 0.471 | 0.484 | 0.481 | 0.335 |
| NCI-H460 | 0.366 | 0.295 | 0.311 | 0.313 | 0.321 |
| NCI-H520 | 0.271 | 0.294 | 0.316 | 0.215 | 0.221 |
| NCI-H596 | 0.383 | 0.432 | 0.384 | 0.374 | 0.429 |
| NCI-H647 | 0.476 | 0.475 | 0.409 | 0.364 | 0.413 |
| NCI-H650 | 1 | 0.789 | 0.955 | 0.768 | 0.766 |
| NCI-H661 | 0.4 | 0.465 | 0.387 | 0.498 | 0.657 |
| NCI-H727 | 0.515 | 0.32 | 0.397 | 0.47 | 0.572 |
| NCI-H838 | 0.529 | 0.42 | 0.469 | 0.397 | 0.429 |
| NCI-H1355 | 0.495 | 0.507 | 0.329 | 0.402 | 0.341 |
| NCI-H1395 | 0.649 | 0.619 | 0.651 | 0.489 | 0.579 |
| NCI-H1437 | 0.465 | 0.49 | 0.489 | 0.453 | 0.44 |
| NCI-H1563 | 0.72 | 0.637 | 0.613 | 0.638 | 0.617 |
| NCI-H1650 | 0.591 | 0.622 | 0.531 | 0.625 | 0.54 |
| NCI-H1651 | 0.685 | 0.647 | 0.636 | 0.474 | 0.608 |
| NCI-H1666 | 0.507 | 0.528 | 0.4 | 0.486 | 0.545 |
| NCI-H1703 | 0.377 |  | 0.26 | 0.215 | 0.223 |

| Cell Line | relative viability (first compound 0.08 µM) | relative viability (first compound 0.253 µM) | relative viability (first compound 0.8 µM) | relative viability (first compound 2.53 µM) | relative viability (first compound 8 µM) |
| --- | --- | --- | --- | --- | --- |
| NCI-H1734 | 0.479 | 0.461 | 0.408 | 0.402 | 0.471 |
| NCI-H1755 | 0.46 | 0.433 | 0.349 | 0.418 | 0.381 |
| NCI-H1792 | 0.303 | 0.248 | 0.27 | 0.207 | 0.18 |
| NCI-H1793 | 0.355 | 0.266 | 0.32 | 0.35 | 0.345 |
| NCI-H1915 | 0.911 | 0.972 | 0.92 | 0.901 | 0.918 |
| NCI-H1944 | 0.36 | 0.343 | 0.318 | 0.367 | 0.322 |
| NCI-H1975 | 0.306 | 0.324 | 0.245 | 0.257 | 0.275 |
| NCI-H1993 | 0.826 | 0.86 | 0.98 | 0.799 | 0.768 |
| NCI-H2009 | 0.792 | 0.766 | 0.795 | 0.803 | 0.541 |
| NCI-H2023 | 0.263 | 0.238 | 0.222 | 0.177 | 0.21 |
| NCI-H2085 | 0.386 | 0.479 | 0.414 | 0.448 | 0.493 |
| NCI-H2087 | 0.963 | 0.786 | 0.926 | 0.848 | 0.806 |
| NCI-H2126 | 0.451 | 0.518 | 0.451 | 0.541 | 0.507 |
| NCI-H2170 | 0.299 | 0.329 | 0.238 | 0.303 | 0.297 |
| NCI-H2228 | 0.566 | 0.411 | 0.545 | 0.395 | 0.349 |
| NCI-H2347 | 0.868 | 0.637 | 0.697 | 0.663 | 0.6 |
| NCI-H2405 | 0.457 | 0.357 | 0.441 | 0.385 | 0.382 |
| NCI-H3122 | 0.664 | 0.55 | 0.643 | 0.698 | 0.746 |
| PC-3 [JPC-3] | 0.613 | 0.88 | 0.655 | 0.76 | 0.829 |
| PC-14 | 0.698 | 0.608 | 0.63 | 0.591 | 0.662 |
| RERF-LC-KJ | 0.518 | 0.595 | 0.57 | 0.625 | 0.515 |
| SK-LU-1 | 0.575 | 0.548 | 0.566 | 0.538 | 0.477 |
| SK-MES-1 | 0.301 | 0.316 | 0.368 | 0.332 | 0.249 |
| SW 1573 | 0.474 | 0.512 | 0.523 | 0.385 | 0.456 |
| UMC-11 | 0.971 | 0.82 | 0.771 | 0.776 | 0.638 |
